Source: patent US20210228560A1 (Centogene IP GmbH, priority 2011, published 2021)
“Also recorded” adds a separate entry of the source.

Legend:
[1] = target: T1, Wild type α-galactosidase A (Replagal®, agalsidase alfa) (Homo sapiens, UniProt P06280); assay: Inhibition of agalsidase alfa (Replagal), cell free; format: biochemical; conditions: for reduction of the enzyme activity, Ambroxol only: FIG. 8 inlay
T1 construct: purchased Shire Pharmaceuticals Replagal
T1 sequence (P06280 32-429): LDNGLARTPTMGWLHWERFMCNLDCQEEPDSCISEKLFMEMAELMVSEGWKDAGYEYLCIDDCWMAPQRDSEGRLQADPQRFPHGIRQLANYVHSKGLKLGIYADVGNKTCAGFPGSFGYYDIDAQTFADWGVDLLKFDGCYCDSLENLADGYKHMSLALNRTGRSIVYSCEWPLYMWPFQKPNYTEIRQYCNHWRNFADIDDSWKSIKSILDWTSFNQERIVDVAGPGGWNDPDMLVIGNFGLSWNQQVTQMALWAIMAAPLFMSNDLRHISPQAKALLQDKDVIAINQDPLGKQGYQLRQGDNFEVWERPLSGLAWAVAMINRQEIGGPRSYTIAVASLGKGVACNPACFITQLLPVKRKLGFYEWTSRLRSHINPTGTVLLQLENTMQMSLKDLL

[2] = test system: acid α-glucosidase mutants; format: cell-based
Experimental: (§1) A bacterial clone containing the full length cDNA of […] (IRATp970C0971D, aligned to accession no. NM_000152.3, GeneBank) was received form ImaGenes GmbH, Berlin, Germany. Amplification was performed with the primers 5′-TAGGAGCTGTCCAGGCCATC-3′ (SEQ ID NO:3) and 5′-GAGAGACTAACACACTCCGC-3′ (SEQ ID NO:4). The PCR was carried out using iProof DNA Polymerase (BioRad). The cDNA was subcloned into pCRII TA TOPO vector (Invitrogen). Prior to ligation, the cDNA insert was incubated with Taq polymerase (Qiagen) to add a poly (A) overhang at the 3′-end for TA-cloning. For expression, the GAA cDNA was ligated into target vector pcDNA3.1/V5-His6 (Invitrogen) using sticky end ligation utilizing unique restriction sites (HindIII, XhoI) offered by both vectors multiple cloning sites.
(§2) Sample preparation was carried out analogously to the α-galactosidase A recordings. As substrate, a 1.3 mg 4-Methylumbelliferyl-α-D-Glukopyranoside/ml solution (in sodium acetate buffer, pH 4.0) was used and 5 μg sample/reaction were added. The reaction was incubated for 60 minutes at 37° C. and stopped with 1M Glycine-NaOH, pH 10.5.

[3] = target: acid α-glucosidase mutants (Homo sapiens, UniProt P10253, Y575S); format: cell-based; conditions: NB-DNJ and Ambroxol combination; FIG. 7A
Sequence of acid α-glucosidase mutants (Homo sapiens, UniProt P10253, Y575S) (P10253 70-952 Y575S): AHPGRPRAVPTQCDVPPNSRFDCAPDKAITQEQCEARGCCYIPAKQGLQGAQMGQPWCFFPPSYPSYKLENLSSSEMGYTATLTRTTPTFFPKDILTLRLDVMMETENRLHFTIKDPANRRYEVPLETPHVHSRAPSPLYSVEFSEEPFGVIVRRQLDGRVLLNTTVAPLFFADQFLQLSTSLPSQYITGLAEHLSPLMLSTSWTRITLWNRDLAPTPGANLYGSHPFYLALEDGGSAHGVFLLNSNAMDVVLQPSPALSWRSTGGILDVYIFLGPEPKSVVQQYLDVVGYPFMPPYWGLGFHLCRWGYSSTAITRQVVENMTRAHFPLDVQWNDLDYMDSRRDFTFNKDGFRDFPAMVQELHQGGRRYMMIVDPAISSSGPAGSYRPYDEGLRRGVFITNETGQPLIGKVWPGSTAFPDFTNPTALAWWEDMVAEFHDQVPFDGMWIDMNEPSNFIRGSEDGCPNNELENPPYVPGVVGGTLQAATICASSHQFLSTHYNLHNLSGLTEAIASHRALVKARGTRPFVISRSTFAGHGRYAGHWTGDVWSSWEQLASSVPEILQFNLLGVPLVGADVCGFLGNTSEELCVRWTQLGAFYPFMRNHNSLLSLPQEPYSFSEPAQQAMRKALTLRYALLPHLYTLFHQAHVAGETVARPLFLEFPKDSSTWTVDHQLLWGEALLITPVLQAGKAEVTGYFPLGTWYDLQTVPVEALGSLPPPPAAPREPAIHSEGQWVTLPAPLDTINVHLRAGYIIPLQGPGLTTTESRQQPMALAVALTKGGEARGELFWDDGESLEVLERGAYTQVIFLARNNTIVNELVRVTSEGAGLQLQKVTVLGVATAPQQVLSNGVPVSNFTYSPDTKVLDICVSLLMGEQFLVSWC
Experimental: as §1, §2

[4] = target: GLA mutants (alpha-galactosidase A) (Homo sapiens, UniProt P06280, M51I); conditions: GLA mutant M51I; Ambroxol in combination with DGJ
Sequence of GLA mutants (alpha-galactosidase A) (Homo sapiens, UniProt P06280, M51I) (P06280 32-429 M51I): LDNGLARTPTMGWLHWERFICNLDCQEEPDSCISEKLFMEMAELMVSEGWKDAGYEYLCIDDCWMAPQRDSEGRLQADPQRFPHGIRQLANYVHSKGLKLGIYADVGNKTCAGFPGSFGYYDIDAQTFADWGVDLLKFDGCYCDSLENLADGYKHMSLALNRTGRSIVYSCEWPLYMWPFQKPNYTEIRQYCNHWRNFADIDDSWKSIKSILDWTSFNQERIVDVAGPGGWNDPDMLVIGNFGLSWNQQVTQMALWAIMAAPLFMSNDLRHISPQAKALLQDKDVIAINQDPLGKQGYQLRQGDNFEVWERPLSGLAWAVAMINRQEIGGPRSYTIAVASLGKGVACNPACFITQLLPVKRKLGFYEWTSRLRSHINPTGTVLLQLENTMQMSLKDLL

[5] = target: GLA mutants (alpha-galactosidase A) (Homo sapiens, UniProt P06280, E59K); conditions: GLA mutant E59K; Ambroxol in combination with DGJ
Sequence of GLA mutants (alpha-galactosidase A) (Homo sapiens, UniProt P06280, E59K) (P06280 32-429 E59K): as the sequence (P06280 32-429 M51I) above, with I20M, E28K counted along it

[6] = test system: GLA mutants (alpha-galactosidase A)
[7] = target: GLA mutants (alpha-galactosidase A) (Homo sapiens, UniProt P06280, R363H); conditions: GLA mutant R363H; Ambroxol in combination with DGJ
Sequence of GLA mutants (alpha-galactosidase A) (Homo sapiens, UniProt P06280, R363H) (P06280 32-429 R363H): as the sequence (P06280 32-429 M51I) above, with I20M, R332H counted along it

[8] = target: GLA mutants (alpha-galactosidase A) (Homo sapiens, UniProt P06280, A156V); conditions: GLA mutant A156V; Ambroxol in combination with DGJ
Sequence of GLA mutants (alpha-galactosidase A) (Homo sapiens, UniProt P06280, A156V) (P06280 32-429 A156V): as the sequence (P06280 32-429 M51I) above, with I20M, A125V counted along it

[9] = target: GLA mutants (alpha-galactosidase A) (Homo sapiens, UniProt P06280, G328A); conditions: GLA mutant G328A; Ambroxol in combination with DGJ
Sequence of GLA mutants (alpha-galactosidase A) (Homo sapiens, UniProt P06280, G328A) (P06280 32-429 G328A): as the sequence (P06280 32-429 M51I) above, with I20M, G297A counted along it

[10] = target: GLA mutants (alpha-galactosidase A) (Homo sapiens, UniProt P06280, H225R); conditions: GLA mutant H225R; Ambroxol in combination with DGJ
Sequence of GLA mutants (alpha-galactosidase A) (Homo sapiens, UniProt P06280, H225R) (P06280 32-429 H225R): as the sequence (P06280 32-429 M51I) above, with I20M, H194R counted along it

[11] = target: GLA mutants (alpha-galactosidase A) (Homo sapiens, UniProt P06280, R301Q); conditions: GLA mutant R301Q; Ambroxol in combination with DGJ
Sequence of GLA mutants (alpha-galactosidase A) (Homo sapiens, UniProt P06280, R301Q) (P06280 32-429 R301Q): as the sequence (P06280 32-429 M51I) above, with I20M, R270Q counted along it

[12] = target: GLA mutants (alpha-galactosidase A) (Homo sapiens, UniProt P06280, R356W); conditions: GLA mutant R356W; Ambroxol in combination with DGJ
Sequence of GLA mutants (alpha-galactosidase A) (Homo sapiens, UniProt P06280, R356W) (P06280 32-429 R356W): as the sequence (P06280 32-429 M51I) above, with I20M, R325W counted along it

[13] = target: GLA mutants (alpha-galactosidase A) (Homo sapiens, UniProt P06280, T410I); conditions: GLA mutant T410I; Ambroxol in combination with DGJ
Sequence of GLA mutants (alpha-galactosidase A) (Homo sapiens, UniProt P06280, T410I) (P06280 32-429 T410I): as the sequence (P06280 32-429 M51I) above, with I20M, T379I counted along it

Compound: Nc1c(Br)cc(Br)cc1CN[C@H]1CC[C@H](O)CC1 [Ambroxol, 2-amino-3,5-dibromo-N-[trans-4-hydroxycyclohexyl]benzylamine]
- effect of Ambroxol on the inhibition of WT α-galactosidase A by DGJ ([1]; 40 μM Ambroxol): no effect
- effect of Ambroxol alone on the enzyme in the cell free assay ([1]; cell free): not inhibited; also recorded: neither an inhibitory nor a stimulating effect
- reduction of the enzyme activity, Ambroxol only ([1]; pH 4.5): No reduction
- reduction of the enzyme activity, Ambroxol only ([1]; pH 6.7): No reduction
- activity of acid α-glucosidase, Ambroxol in combination with NB-DNJ ([2]; 20 μM NB-DNJ + 40 μM Ambroxol compared to 20 μM NB-DNJ alone, FIG. 7): enhanced
- enzyme activity of mutations Y455F, P545L and L552P, combined treatment ([2]; 20 μM NB-DNJ and 40 μM Ambroxol, FIG. 7A): significantly increased
- activity of mutant acid α-glucosidase, Ambroxol alone ([2]; 40 μM Ambroxol without chaperone): not leading to an enhancement
- activity when additionally treated with Ambroxol ([2]; mutations Y455F, P545L and L552P, compared to NB-DNJ): tendency for higher activities
- responsiveness of mutation Y575S [3]: clear tendency to be responsive only towards the combination
- additive Ambroxol effect demonstrated [4]: ** (**p≤0.05)
- additive Ambroxol effect demonstrated [5]: **** (****p≤0.005)
- effect on enzyme activity of the mutant forms of GLA ([6]; 40 μM Ambroxol alone, FIG. 1): no effect
- activity of mutant alpha-galactosidase A, Ambroxol together with Galactose ([6]; compared to Galactose only, 100 mM galactose and 40 μM Ambroxol (FIG. 3B)): increased
- significance of protein activity, Ambroxol and DGJ compared to DGJ alone ([6]; mutations E59K, A156V and G328A, FIG. 6): significant
- additive Ambroxol effect demonstrated [7]: *** (***p≤0.01)
- additive Ambroxol effect demonstrated [8]: **** (****p≤0.005)
- additive Ambroxol effect demonstrated [9]: * (*p≤0.1)
- additive Ambroxol effect demonstrated [10]: ** (**p≤0.05)
- additive Ambroxol effect demonstrated [11]: **** (****p≤0.005)
- additive Ambroxol effect demonstrated [12]: **** (****p≤0.005)
- additive Ambroxol effect demonstrated [13]: * (*p≤0.1)
